Measured values taken from ChEMBL document CHEMBL1909046, “DrugMatrix in vitro pharmacology data”.
pIC50, pKi: −log10 of the molar value.

What was measured:
Nitric oxide synthase 1 = Nitric oxide synthase 1 (Rattus norvegicus, UniProt P29476); format: tissue-based, Cerebellum; further: in other assays of this panel Not Active means under 50% inhibition at 10 µM
[1] = molecular target: 5-hydroxytryptamine receptor 1B (Rattus norvegicus, UniProt P28564); format: cell membranes, Wistar, Cerebral cortex, Membrane; further: in other assays of this panel Not Active means under 50% inhibition at 10 µM
[2] = molecular target: T1, Amine oxidase [flavin-containing] A (Homo sapiens, UniProt P21397); assay: DRUGMATRIX: Monoamine Oxidase MAO-A enzyme inhibition (substrate: Kynuramine); design: species or system BTI-TN-5B1-4; settings: Not Active = under 50% inhibition at 10 µM; for IC50 / Ki: bti-tn-5b1-4
T1 sequence (P21397 whole entry): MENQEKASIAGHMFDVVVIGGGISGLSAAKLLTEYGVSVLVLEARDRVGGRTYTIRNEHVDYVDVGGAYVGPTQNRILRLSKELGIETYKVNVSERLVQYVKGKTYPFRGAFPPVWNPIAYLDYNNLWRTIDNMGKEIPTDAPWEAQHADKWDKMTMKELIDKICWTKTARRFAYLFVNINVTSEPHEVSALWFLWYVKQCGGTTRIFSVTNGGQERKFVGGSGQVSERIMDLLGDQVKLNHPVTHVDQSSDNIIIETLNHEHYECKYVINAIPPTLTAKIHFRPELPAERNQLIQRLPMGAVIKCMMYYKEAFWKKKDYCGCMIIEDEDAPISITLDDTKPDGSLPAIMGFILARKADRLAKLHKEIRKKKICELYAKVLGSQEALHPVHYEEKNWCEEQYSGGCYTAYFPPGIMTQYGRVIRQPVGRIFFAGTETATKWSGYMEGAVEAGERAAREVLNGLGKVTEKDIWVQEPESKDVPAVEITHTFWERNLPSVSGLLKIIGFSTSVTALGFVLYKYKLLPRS

[3] = molecular target: Protein kinase C alpha type (Homo sapiens, UniProt P17252); format: cell-based; settings: sf9;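 further: inhibition of PKCalpha kinase activity measured in an enzyme assay with histone as the phosphorylation substrate; in other assays of this panel Not Active means under 50% inhibition at 10 µM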
Caspase-1 = molecular target: T2, Caspase-1 (Homo sapiens, UniProt P29466); design: species or system Escherichia coli;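 further: Caspase-1 enzyme inhibition assay with a peptide substrate; in other assays of this panel Not Active means under 50% inhibition at 10 µM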
T2 sequence (P29466 whole entry): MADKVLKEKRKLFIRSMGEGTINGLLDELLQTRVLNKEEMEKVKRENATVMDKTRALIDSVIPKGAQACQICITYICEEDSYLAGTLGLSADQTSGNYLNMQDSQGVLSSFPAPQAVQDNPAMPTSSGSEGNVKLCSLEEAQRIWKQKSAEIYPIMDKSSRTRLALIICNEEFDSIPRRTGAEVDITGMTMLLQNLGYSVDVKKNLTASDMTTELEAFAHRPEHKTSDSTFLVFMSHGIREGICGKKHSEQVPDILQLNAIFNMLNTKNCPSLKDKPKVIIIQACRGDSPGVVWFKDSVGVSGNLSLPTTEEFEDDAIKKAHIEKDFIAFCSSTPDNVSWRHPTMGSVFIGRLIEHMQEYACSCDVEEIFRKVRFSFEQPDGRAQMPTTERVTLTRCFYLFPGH

[4] = molecular target: T3, Muscarinic acetylcholine receptor M5 (Homo sapiens, UniProt P08912); format: cell membranes, CHO-K1, Membrane; settings: cho-k1; further: in other assays of this panel Not Active means under 50% inhibition at 10 µM
T3 sequence (P08912 whole entry): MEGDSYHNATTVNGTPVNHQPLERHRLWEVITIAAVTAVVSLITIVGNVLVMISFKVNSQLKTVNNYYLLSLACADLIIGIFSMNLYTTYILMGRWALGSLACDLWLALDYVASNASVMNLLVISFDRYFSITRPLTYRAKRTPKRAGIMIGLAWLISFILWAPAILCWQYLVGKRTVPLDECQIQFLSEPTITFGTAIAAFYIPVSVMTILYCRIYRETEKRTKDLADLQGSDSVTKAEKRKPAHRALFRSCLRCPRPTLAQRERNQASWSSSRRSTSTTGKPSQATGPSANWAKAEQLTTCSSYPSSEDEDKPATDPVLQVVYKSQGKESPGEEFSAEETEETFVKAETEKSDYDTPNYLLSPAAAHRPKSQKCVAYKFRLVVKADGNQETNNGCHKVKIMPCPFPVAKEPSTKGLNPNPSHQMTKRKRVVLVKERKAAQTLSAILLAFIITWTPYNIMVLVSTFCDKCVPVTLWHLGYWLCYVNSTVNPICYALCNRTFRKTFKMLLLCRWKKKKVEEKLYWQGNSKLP

[5] = molecular target: T4, Neuropeptide Y receptor type 2 (Homo sapiens, UniProt P49146); format: cell membranes, Membrane; settings: kan-ts; further: in other assays of this panel Not Active means under 50% inhibition at 10 µM
T4 sequence (P49146 whole entry): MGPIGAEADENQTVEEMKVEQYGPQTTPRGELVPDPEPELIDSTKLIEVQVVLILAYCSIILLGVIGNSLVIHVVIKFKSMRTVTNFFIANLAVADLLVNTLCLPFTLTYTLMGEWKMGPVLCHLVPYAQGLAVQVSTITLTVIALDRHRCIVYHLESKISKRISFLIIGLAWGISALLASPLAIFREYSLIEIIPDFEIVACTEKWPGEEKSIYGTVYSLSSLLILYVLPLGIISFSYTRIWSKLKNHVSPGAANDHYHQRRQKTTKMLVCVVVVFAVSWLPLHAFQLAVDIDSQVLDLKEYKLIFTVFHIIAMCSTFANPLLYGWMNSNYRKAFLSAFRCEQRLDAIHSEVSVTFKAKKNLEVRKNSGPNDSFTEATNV

Nitric oxide synthase 1, sequence (P29476 whole entry): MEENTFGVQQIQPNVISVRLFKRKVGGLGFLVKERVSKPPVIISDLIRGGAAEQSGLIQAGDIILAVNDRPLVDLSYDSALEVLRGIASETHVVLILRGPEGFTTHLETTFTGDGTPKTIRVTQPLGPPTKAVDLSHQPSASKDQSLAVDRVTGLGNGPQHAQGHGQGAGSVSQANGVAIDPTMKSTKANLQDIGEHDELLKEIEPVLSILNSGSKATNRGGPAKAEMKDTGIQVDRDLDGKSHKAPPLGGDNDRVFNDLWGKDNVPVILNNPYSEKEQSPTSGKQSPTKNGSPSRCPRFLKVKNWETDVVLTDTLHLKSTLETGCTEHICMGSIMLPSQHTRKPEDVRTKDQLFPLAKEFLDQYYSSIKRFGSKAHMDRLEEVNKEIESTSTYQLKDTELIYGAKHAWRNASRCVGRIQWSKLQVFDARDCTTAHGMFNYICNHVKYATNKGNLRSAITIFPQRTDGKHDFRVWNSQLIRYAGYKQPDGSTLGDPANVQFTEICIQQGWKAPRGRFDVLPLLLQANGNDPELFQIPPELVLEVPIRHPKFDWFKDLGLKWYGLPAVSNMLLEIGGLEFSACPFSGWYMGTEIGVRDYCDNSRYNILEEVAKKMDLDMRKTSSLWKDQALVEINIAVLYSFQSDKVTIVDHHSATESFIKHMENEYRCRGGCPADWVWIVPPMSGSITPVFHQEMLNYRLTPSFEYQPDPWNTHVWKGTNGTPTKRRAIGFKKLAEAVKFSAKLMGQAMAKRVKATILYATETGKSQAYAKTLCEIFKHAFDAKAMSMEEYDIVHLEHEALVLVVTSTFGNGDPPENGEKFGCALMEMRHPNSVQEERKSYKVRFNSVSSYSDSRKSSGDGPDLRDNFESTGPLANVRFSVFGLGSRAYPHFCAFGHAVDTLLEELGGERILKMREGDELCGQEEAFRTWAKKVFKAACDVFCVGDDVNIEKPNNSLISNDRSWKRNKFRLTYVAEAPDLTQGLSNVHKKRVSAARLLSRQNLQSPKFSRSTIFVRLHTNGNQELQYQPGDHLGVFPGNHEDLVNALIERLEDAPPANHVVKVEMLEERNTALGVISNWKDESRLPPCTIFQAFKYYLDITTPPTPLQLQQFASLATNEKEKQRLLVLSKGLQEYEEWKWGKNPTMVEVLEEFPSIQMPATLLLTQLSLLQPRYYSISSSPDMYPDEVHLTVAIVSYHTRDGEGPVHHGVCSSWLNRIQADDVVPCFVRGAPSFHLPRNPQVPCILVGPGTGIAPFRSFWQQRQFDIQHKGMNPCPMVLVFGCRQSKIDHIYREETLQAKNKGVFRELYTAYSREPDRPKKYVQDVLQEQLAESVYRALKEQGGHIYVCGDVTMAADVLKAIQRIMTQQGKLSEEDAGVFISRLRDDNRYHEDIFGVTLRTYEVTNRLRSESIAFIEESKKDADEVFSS
5-hydroxytryptamine receptor 1B, sequence (P28564 whole entry): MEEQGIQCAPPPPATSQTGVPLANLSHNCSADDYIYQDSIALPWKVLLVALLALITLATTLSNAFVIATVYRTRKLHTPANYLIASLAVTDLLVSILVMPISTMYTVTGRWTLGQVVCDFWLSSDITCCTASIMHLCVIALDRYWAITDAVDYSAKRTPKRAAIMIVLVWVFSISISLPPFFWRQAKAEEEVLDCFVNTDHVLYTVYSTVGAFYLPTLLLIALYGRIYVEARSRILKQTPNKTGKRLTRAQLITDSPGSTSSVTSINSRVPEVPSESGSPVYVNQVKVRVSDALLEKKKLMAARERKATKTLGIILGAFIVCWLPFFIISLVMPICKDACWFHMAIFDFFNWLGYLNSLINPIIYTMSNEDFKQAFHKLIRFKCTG

Row | Compound | IC50 (Nitric oxide synthase 1) | IC50 [1] | IC50 [2] | IC50 [3] | IC50 (Caspase-1) | IC50 [4] | IC50 [5] | Ki (Nitric oxide synthase 1) | Ki [1] | Ki [2] | Ki [3] | Ki (Caspase-1) | Ki [4] | Ki [5] | pIC50 ([2]; read-out: IC50) | pIC50 ([1]; read-out: IC50) | pKi ([1]; read-out: Ki)
1 | CC(C)NCC(O)COc1ccc(CC(N)=O)cc1 (stereo not given) [ATENOLOL] | Not Active | Not Active | Not Active | Not Active | Not Active | Not Active | Not Active | – | – | – | – | – | – | – | – | – | –
2 | Cl.NC[C@H]1CC[C@H](C(=O)Oc2ccc(CCC(=O)O)cc2)CC1 [CETRAXATE HYDROCHLORIDE] | Not Active | Not Active | Not Active | Not Active | Not Active | Not Active | Not Active | – | – | – | – | – | – | – | – | – | –
3 | O=C(NCCN1CCOCC1)c1ccc(Cl)cc1 [MOCLOBEMIDE] | Not Active | Not Active | Not Active | Not Active | Not Active | Not Active | Not Active | – | – | – | – | – | – | – | – | – | –
4 | CARBOXYMETHYLCELLULOSE | Not Active | Not Active | Not Active | Not Active | Not Active | Not Active | Not Active | Not Active | Not Active | Not Active | Not Active | Not Active | Not Active | Not Active | – | – | –
5 | C[C@@H]1[C@H](O)[C@@H](C)/C=C/C=C/C=C/C=C/C=C/C=C/C=C/[C@H](O[C@@H]2O[C@H](C)[C@@H](O)[C@H](N)[C@@H]2O)C[C@@H]2O[C@](O)(C[C@@H](O)C[C@@H](O)[C@H](O)CC[C@@H](O)C[C@@H](O)CC(=O)O[C@H]1C)C[C@H](O)[C@H]2C(=O)O [AMPHOTERICIN B] | Not Active | Not Active | Not Active | Not Active | Not Active | Not Active | Not Active | – | – | – | – | – | – | – | – | – | –
6 | CCN(CCO)CCCC(C)Nc1ccnc2cc(Cl)ccc12 (stereo not given) [HYDROXYCHLOROQUINE] | Not Active | Not Active | Not Active | Not Active | Not Active | Not Active | Not Active | – | – | – | – | – | – | – | – | – | –
7 | CCC1(c2ccccc2)C(=O)NC(=O)NC1=O [PHENOBARBITAL] | Not Active | Not Active | Not Active | Not Active | Not Active | Not Active | Not Active | – | – | – | – | – | – | – | – | – | –
8 | C=CCN1CC[C@]23c4c5ccc(O)c4O[C@H]2/C(=N/N=C2\CC[C@@]4(O)[C@H]6Cc7ccc(O)c8c7[C@@]4(CCN6CC=C)[C@H]2O8)CC[C@@]3(O)[C@H]1C5 [NALOXONAZINE] | Not Active | Not Active | Not Active | Not Active | Not Active | Not Active | Not Active | – | – | – | – | – | – | – | – | – | –
9 | CC(C)(C#N)c1cc(Cn2cncn2)cc(C(C)(C)C#N)c1 [ANASTROZOLE] | Not Active | Not Active | Not Active | Not Active | Not Active | Not Active | Not Active | – | – | – | – | – | – | – | – | – | –
10 | OC[C@H]1O[C@@H]2O[C@H]3[C@H](O)[C@@H](O)[C@@H](O[C@H]4[C@H](O)[C@@H](O)[C@@H](O[C@H]5[C@H](O)[C@@H](O)[C@@H](O[C@H]6[C@H](O)[C@@H](O)[C@@H](O[C@H]7[C@H](O)[C@@H](O)[C@@H](O[C@H]1[C@H](O)[C@H]2O)O[C@@H]7CO)O[C@@H]6CO)O[C@@H]5CO)O[C@@H]4CO)O[C@@H]3CO [ALFADEX] | Not Active | Not Active | Not Active | Not Active | Not Active | Not Active | Not Active | – | – | – | – | – | – | – | – | – | –
11 | POVIDONE | Not Active | Not Active | Not Active | Not Active | Not Active | Not Active | Not Active | Not Active | Not Active | Not Active | Not Active | Not Active | Not Active | Not Active | – | – | –
12 | c1ccc2c(c1)Nc1ccccc1S2 [PHENOTHIAZINE] | Not Active | Not Active | – | Not Active | Not Active | Not Active | Not Active | – | – | – | – | – | – | – | 6.23 | – | –
13 | CC[C@H]1OC(=O)[C@H](C)[C@@H](O[C@H]2C[C@@](C)(OC)[C@@H](O)[C@H](C)O2)[C@H](C)[C@@H](O[C@@H]2O[C@H](C)C[C@H](N(C)C)[C@H]2O)[C@](C)(O)C[C@@H](C)C(=O)[C@H](C)[C@@H](O)[C@]1(C)O [ERYTHROMYCIN] | Not Active | Not Active | Not Active | Not Active | Not Active | Not Active | Not Active | – | – | – | – | – | – | – | – | – | –
14 | NS(=O)(=O)c1cc(C(=O)O)c(NCc2ccco2)cc1Cl [FUROSEMIDE] | Not Active | Not Active | Not Active | Not Active | Not Active | Not Active | Not Active | – | – | – | – | – | – | – | – | – | –
15 | COc1cc([C@@H]2c3cc4c(cc3[C@H](O)[C@H]3COC(=O)[C@H]23)OCO4)cc(OC)c1OC [PODOFILOX] | Not Active | Not Active | Not Active | Not Active | Not Active | Not Active | Not Active | – | – | – | – | – | – | – | – | – | –
16 | CC(N)Cc1c[nH]c2ccc(OCc3cccs3)cc12 (stereo not given) [BW-723C86] | Not Active | – | Not Active | Not Active | Not Active | Not Active | Not Active | – | – | – | – | – | – | – | – | 6.38 | 6.40
17 | O=C(O)COC(=O)Cc1ccccc1Nc1c(Cl)cccc1Cl [ACECLOFENAC] | Not Active | Not Active | Not Active | Not Active | Not Active | Not Active | Not Active | – | – | – | – | – | – | – | – | – | –
18 | COC(=O)Nc1nc2ccc(Sc3ccccc3)cc2[nH]1 [FENBENDAZOLE] | Not Active | Not Active | Not Active | Not Active | Not Active | Not Active | Not Active | – | – | – | – | – | – | – | – | – | –
19 | Cc1c(N)nc([C@H](CC(N)=O)NC[C@H](N)C(N)=O)nc1C(=O)N[C@H](C(=O)N[C@H](C)[C@@H](O)[C@H](C)C(=O)N[C@H](C(=O)NCCc1nc(-c2nc(C(=O)NCCC[S+](C)C)cs2)cs1)[C@@H](C)O)[C@@H](O[C@@H]1O[C@@H](CO)[C@@H](O)[C@H](O)[C@@H]1O[C@H]1O[C@H](CO)[C@@H](O)[C@H](OC(N)=O)[C@@H]1O)c1c[nH]cn1.[Br-] [BLEOMYCIN A2] | Not Active | Not Active | Not Active | Not Active | Not Active | Not Active | Not Active | – | – | – | – | – | – | – | – | – | –
20 | C#C[C@]1(O)CC[C@H]2[C@@H]3CCC4=CC(=O)CC[C@@H]4[C@H]3CC[C@@]21C [NORETHINDRONE] | Not Active | Not Active | Not Active | Not Active | Not Active | Not Active | Not Active | – | – | – | – | – | – | – | – | – | –
